Results on eight molecules are retold here after patent US20240189440A1, “TLR7 AND TLR8 AGONISTS FOR THE TREATMENT OF CANCER AND/OR INFECTIOUS DISEASES” (priority 2021, published 2024).

Read-outs that look alike come from different tables or passages of the source.

For data set [1] the following is noted: patients with mild allergic asthma; Tsitoura et al. 2015; cited from earlier work.
Data set [2] has as its system HBV infected primary human hepatocytes. Conditions: Tsai et al. 2017, Bam et al. 2016; cited from earlier work.
The subject of data set [3] is hepatitis C virus. The conditions noted are these: treatment of hepatitis C virus; Fidock et al. 2011; cited from earlier work.
The subject of data set [4] is NFκB pathway in Ramos-blue cells. Nature of the data set: Ramos-Blue NFκB/SEAP reporter assay with cysteine-capped linker-payloads, 72 h (Example 15). Format: cell-based. The conditions noted are these: read-out: Relative Activation. How it is done: A 50 mM cysteine stock was prepared in 0.1 M PBS pH 7.4. 10 equivalents of 50 mM cysteine were added to 1 equivalent of linker-payload to create a 2.50 mM solution. The reaction was vortexed and sat at room temperature for an hour to allow for the Michael addition to occur. After an hour, an aliquot was taken and run via UPLC-MS to ensure for the complete Michael reaction. The reaction was diluted to 1 mM using 0.1M PBS pH 7.4. The 1 mM solution was diluted to 500 uM and 50 uM in a 96-well plate to afford a final concentration of 50 uM and 5 uM in the cell suspension. The cell density and viability were calculated using the Countess Cell Counter and the proper volume of cells was removed in order to have a seeding density of 0.2×10^6 cells/mL per well. 135 uL of cell suspension was added to each well in a 96-well plate along with 15 uL of the corresponding linker-payload treatment. Each concentration was run in triplicate and incubated at 37° C. with 5% CO2 for 72 hours.
Invivogen's QUANTI-Blue™ solution was prepared by adding 200 uL of QB reagent and 200 uL of QB buffer to 19.6 mL of water. The resulting solution was vortexed and incubated at room temperature for ten minutes. The 96-well plate was centrifuged at 1990 rpm for ten minutes. Then, 40 uL of cell supernatant was added to 160 uL of the prepared QUANTI-Blue™ solution and incubated at 37° C. for 24 hours. The plate was read using the Molecular Devices i3x plate reader at a wavelength of 630 nm to determine the amount of SEAP production.
A general note: Reporter assays use an easily measured gene product as a stand-in for the process of interest.

Setting [5] is: Linker-Payload Dose 5 uM, cysteine-capped, 72 hours, SEAP at 630 nm.
[6] abbreviates: Linker-Payload Dose 50 uM, cysteine-capped, 72 hours, SEAP at 630 nm.

Consider `CCC[C@H](C)Oc1nc(N)c2[nH]c(=O)n(CCCCCN3CCCCC3)c2n1` [GSK-2245035], for which the “Efficacy on allergen-induced asthmatic response” value in data set [1] is listed as “lack efficacy”.
For `CCCCOc1nc(N)c2c(n1)N(Cc1cccc(CN3CCCC3)c1)CC(=O)N2` [GS-9620], the Antiviral activity result in data set [2] is “no antiviral activity”.
For the molecule `CCc1nc2c(N)nc3ccccc3c2n1CCCCNS(C)(=O)=O` [PF-4878691], in data set [3], the Therapeutic index result was “low therapeutic index”.
Regarding `CCOCc1nc2c(NC(=O)CCCCCN3C(=O)C=CC3=O)nc3ccccc3c2n1CC(C)(C)O` [Mc_Resiquimod, 6-(2,5-dioxo-2,5-dihydro-1H-pyrrol-1-yl)-N-(2-(ethoxymethyl)-1-(2-hydroxy-2-methylpropyl)-1H-imidazo[4,5-c]quinolin-4-yl)hexanamide], the activation at 5 µM in data set [4] (setting [5]) is 17.6%. Moreover, the activation at 50 µM in data set [4] (setting [6]) was -21%.
On to `CCOCc1cc2c(NC(=O)C(CCCNC(N)=O)NC(=O)C(NC(=O)CCCCCN3C(=O)C=CC3=O)C(C)C)nc3ccccc3c2n1CC(C)(C)O` (stereo not shown) [Mc_ValCit_Resiquimod, 6-(2,5-Dioxo-2,5-dihydro-1H-pyrrol-1-yl)-N-(1-(1-(2-(ethoxymethyl)-1-(2-hydroxy-2-methylpropyl)-1H-pyrrolo[3,2-c]quinolin-4-ylamino)-1-oxo-5-ureidopentan-2-ylamino)-3-methyl-1-oxobutan-2-yl)hexanamide], for which, in data set [4] (72 h), the activation at 5 µM turned out to be 11.4% and the activation at 50 µM was -23.1%.
For the molecule `CCCCc1nc2c(N)nc3ccccc3c2n1Cc1ccc(CNC(=O)OCc2ccc(NC(=O)C(CCCNC(N)=O)NC(=O)C(NC(=O)CCCCCN3C(=O)C=CC3=O)C(C)C)cc2)cc1` (stereo not shown) [Mc_ValCitPABC_E66, 4-(2-(2-(6-(2,5-Dioxo-2,5-dihydro-1H-pyrrol-1-yl)hexanamido)-3-methylbutanamido)-5-ureidopentanamido)benzyl 4-((4-amino-2-butyl-1H-imidazo[4,5-c]quinolin-1-yl)methyl)benzylcarbamate], in data set [4] (setting [5]), the activation at 5 µM worked out at 7.15%. In data set [4] (setting [6]), the activation at 50 µM is -19.7%.
On the same counts, the results for `CCCCc1nc2c(N)nc3ccccc3c2n1Cc1ccc(NC(=O)C(CCCNC(N)=O)NC(=O)C(NC(=O)CCCCCN2C(=O)C=CC2=O)C(C)C)cc1` (stereo not shown) [Mc_ValCit_E104, N-(1-(1-(4-((4-amino-2-butyl-1H-imidazo[4,5-c]quinolin-1-yl)methyl)phenylamino)-1-oxo-5-ureidopentan-2-ylamino)-3-methyl-1-oxobutan-2-yl)-6-(2,5-dioxo-2,5-dihydro-1H-pyrrol-1-yl)hexanamide] are 238% and -50.9%.
On the same counts, the results for `CCCCc1nc2c(N)nc3ccccc3c2n1Cc1ccc(NC(=O)CCCCCN2C(=O)C=CC2=O)cc1` [Mc_E104, N-(4-((4-amino-2-butyl-1H-imidazo[4,5-c]quinolin-1-yl)methyl)phenyl)-6-(2,5-dioxo-2,5-dihydro-1H-pyrrol-1-yl)hexanamide] are 704% and -52%.
